By pKi is commonly meant the Ki on a negative log10 scale, so that one unit is a factor of ten. High values mean a low Ki, low ones a high Ki.

The structures appear in SMILES notation. pKi: −log10 of the molar value.

The record followed here is patent US8748624B2, “Picolinamido-propanoic acid derivatives useful as glucagon receptor antagonists” (Janssen Pharmaceutica NV, priority 2011, dated 2014).

For experiment [1], the target named is human glucagon receptor (GCGR) (Homo sapiens (Human), UniProt P47871). Kind of experiment: Inhibition of 125I-glucagon binding to membranes from HEK293 cells expressing the human glucagon receptor. The settings on record: membranes of hGluc-1 HEK cells, 125I-glucagon 0.3 nM. The procedure: Inhibition ^125I-Glucagon Binding to Membranes from HEK293 Cells Expressing the Human Glucagon Receptor (GCGR)
Full-length human GCGR (Accession Number: NM000160) subcloned into pcDNA3.1 was stably transfected into HEK293 cells (hGluc-1 HEK) and maintained under G418 selection (500 μg/mL). Cell cultures were maintained in DMEM/F12 media supplemented with 10% FBS and 1% GlutaMax. Membranes were prepared from these cells as follows: cells were harvested from T225 flasks and re-suspended in hypotonic lysis buffer, 50 mM HEPES pH 7.4 supplemented with Complete Protease inhibitors (Boehringer Mannheim, Indianapolis, Ind.). Cells were dounced 20 times on ice and spun at 700×g to remove nuclei and unlysed cells. The resulting pellet was re-suspended in hypotonic lysis buffer and the above step was repeated. Supernatants from the low speed centrifugation were combined and subsequently spun at 100K×g for 1 hr at 4° C. and the resulting pellet was re-suspended in buffer containing 50 mM HEPES pH 7.4 and 10% sucrose and the protein concentration was adjusted at 1 mg/mL as determined in the BCA assay. Membranes were aliquoted and stored at −80° C. The binding assay was performed by a filtration method in a 384 well format. Membranes at a final protein concentration of 6 μg/well were incubated with ^125I-glucagon at 0.3 nM and in the presence of compound for 2 hours at room temperature in a total reaction volume of 40 μL per well. Assay buffer consisted of 50 mM HEPES, pH 7.4, 5 mM MgCl2, 1 mM CaCl2 and 0.2% BSA. 30 μL of the reaction was then transferred to PEI treated filter plates and followed by filter aspiration. Plates were then washed 5× and allowed to dry at room temperature overnight. The next day the bottom of the plate was covered with seal tape and scintillant was added. Total counts retained by the filters were quantified with a Top Count instrument. IC50's were generated by using a non-linear regression macro driven in Excel and converted to K's.

A further experiment concerns the target human GCGR (Homo sapiens (Human), UniProt P47871). Put plainly: Cellular functional assay, cAMP readout (glucagon-stimulated cAMP in HEK293 cells expressing human GCGR). It counts as cell-based. The conditions noted are these: hGluc-1 HEK cells. The method, boiled down:
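HEK293 cells stably transfected with full-length human GCGR were exposed to compound for 30 min before a 5-min challenge with […] (final) glucagon. Readout was TR-FRET (LANCE) cAMP versus standard curve; IC50s fitted by non-linear regression and converted to Ki values.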

Where [2] appears, read: meta-substituted comparative compounds (Table 3).
Where [3] appears, read: 2 hours room temperature, IC50 converted to Ki, average if tested more than once.
Setting [4] is: LANCE TR-FRET, IC50 converted to Ki, average if tested more than once.

Chain of human glucagon receptor (GCGR) (P47871 26-477): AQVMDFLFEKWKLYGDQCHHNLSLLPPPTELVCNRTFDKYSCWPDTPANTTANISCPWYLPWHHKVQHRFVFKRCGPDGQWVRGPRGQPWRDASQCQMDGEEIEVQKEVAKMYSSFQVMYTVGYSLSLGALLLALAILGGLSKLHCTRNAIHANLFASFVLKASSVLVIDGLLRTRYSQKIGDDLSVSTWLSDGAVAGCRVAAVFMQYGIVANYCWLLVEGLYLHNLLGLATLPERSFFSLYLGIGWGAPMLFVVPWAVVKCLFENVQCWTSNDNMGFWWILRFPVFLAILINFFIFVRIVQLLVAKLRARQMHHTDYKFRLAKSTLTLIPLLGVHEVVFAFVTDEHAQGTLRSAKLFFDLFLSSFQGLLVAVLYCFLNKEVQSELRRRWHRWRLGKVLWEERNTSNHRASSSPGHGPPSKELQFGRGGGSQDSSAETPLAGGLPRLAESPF
Chain of human GCGR (P47871 26-477): as above

Turning to `O=C(O)CCNC(=O)c1ccc(-c2cc(Cl)cc(CNc3ccc(-c4ccc(Cl)cc4Cl)cc3)c2)cn1` [Compound M4, 3-(5-(3-chloro-5-(((2′,4′-dichloro-[1,1′-biphenyl]-4-yl)amino)methyl)phenyl)picolinamido)propanoic acid, reference compound], the negative-log Ki (pKi) in experiment [1] (setting [2]) was under 5.87; on human GCGR (setting [2]) it was under 4.98.
With `O=C(O)CCNC(=O)c1ccc(-c2cc(C(F)(F)F)cc(Cl)c2CNc2ccc(-c3ccc(Cl)cc3)cc2)cn1` [Compound 67, 3-(5-(3-chloro-2-(((4′-chloro-[1,1′-biphenyl]-4-yl)amino)methyl)-5-(trifluoromethyl)phenyl)picolinamido)propanoic acid], the results for the pKi (in experiment [1] (setting [3]); on human GCGR (setting [4])) were 7.73 and 7.91, respectively.
Regarding `Cc1cccc(-c2ccc(C(=O)NCCC(=O)O)nc2)c1CNc1ccc(-c2ccc(Cl)cc2)cc1` [Compound 65, 3-(5-(2-(((4′-chloro-[1,1′-biphenyl]-4-yl)amino)methyl)-3-methylphenyl)picolinamido)propanoic acid], the pKi in experiment [1] (setting [3]) is 6.86; on human GCGR (setting [4]), 6.41.
`Cc1cc(F)ccc1-c1ccc(NCc2ccc(Cl)cc2-c2ccc(C(=O)NCCC(=O)O)nc2)cc1` [Compound 151, 3-(5-(5-chloro-2-(((4′-fluoro-2′-methyl-[1,1′-biphenyl]-4-yl)amino)methyl)phenyl)picolinamido)propanoic acid]: the pKi in experiment [1] (setting [3]) was 7.78; on human GCGR (setting [4]) it was 6.95.
For `O=C(O)CCNC(=O)c1ccc(-c2cc(C(F)(F)F)ccc2CNc2ccc(-c3ccc(C(F)(F)F)c(F)c3)c(Cl)c2)cn1` [Compound 39, 3-(5-(2-(((2-chloro-3′-fluoro-4′-(trifluoromethyl)-[1,1′-biphenyl]-4-yl)amino)methyl)-5-(trifluoromethyl)phenyl)picolinamido)propanoic acid], in that order: 7.58 and 7.32.
Turning to `O=C(O)CCNC(=O)c1ccc(-c2cc(C(F)(F)F)ccc2CNc2ccc(-c3ccc(Cl)cc3)c(Cl)c2)cn1` [Compound 28, 3-(5-(2-(((2,4′-dichloro-[1,1′-biphenyl]-4-yl)amino)methyl)-5-(trifluoromethyl)phenyl)picolinamido)propanoic acid], the pKi in experiment [1] (setting [3]) is 7.55; at human GCGR (setting [4]) it was 7.50.
With `O=C(O)CCNC(=O)c1ccc(-c2cc(C(F)(F)F)ccc2CNc2ccc(-c3cccc(C(F)(F)F)c3Cl)c(Cl)c2)cn1` [Compound 38, 3-(5-(2-(((2,2′-dichloro-3′-(trifluoromethyl)-[1,1′-biphenyl]-4-yl)amino)methyl)-5-(trifluoromethyl)phenyl)picolinamido)propanoic acid], the pKi (in experiment [1] (setting [3]); on human GCGR (setting [4])) was 7.65 each time.
Regarding `O=C(O)CCNC(=O)c1ccc(-c2cc(C(F)(F)F)c(Cl)cc2CNc2ccc(-c3ccc(Cl)cc3)cc2)cn1` [Compound 80, 3-(5-(4-chloro-2-(((4′-chloro-[1,1′-biphenyl]-4-yl)amino)methyl)-5-(trifluoromethyl)phenyl)picolinamido)propanoic acid], the pKi was 7.54 in experiment [1] (setting [3]) and 7.32 at human GCGR (setting [4]).
Consider `O=C(O)CCNC(=O)c1ccc(-c2cc(F)c(F)cc2C(=O)Nc2ccc(-c3ccc(Cl)cc3Cl)cc2)cn1` [Compound 94, 3-(5-(2-((2′,4′-dichloro-[1,1′-biphenyl]-4-yl)carbamoyl)-4,5-difluorophenyl)picolinamido)propanoic acid], for which the pKi is 7.47 in experiment [1] (setting [3]) and 7.11 at human GCGR (setting [4]).
On to `O=C(O)CCNC(=O)c1ccc(-c2cc(Cl)ccc2CNc2ccc(-c3cccc(F)c3)cc2)cn1` [Compound 134, 3-(5-(5-chloro-2-(((3′-fluoro-[1,1′-biphenyl]-4-yl)amino)methyl)phenyl)picolinamido)propanoic acid], for which the pKi was 7.42 in experiment [1] (setting [3]) and 6.22 at human GCGR (setting [4]).
Regarding `O=C(O)CCNC(=O)c1ccc(-c2cc(Cl)cc(C(=O)Nc3ccc(-c4ccc(Cl)cc4)cc3)c2)cn1` [Compound M5, 3-(5-(3-chloro-5-((4′-chloro-[1,1′-biphenyl]-4-yl)carbamoyl)phenyl)picolinamido)propanoic acid, reference compound], the negative-log Ki (pKi) in experiment [1] (setting [2]) is under 5.27; on human GCGR (setting [2]), under 4.98.
Consider `O=C(O)CCNC(=O)c1ccc(-c2ccccc2CNc2ccc(-c3ccc(Cl)cc3)cc2)cn1` [Compound 2, 3-(5-(2-(((4′-chloro-[1,1′-biphenyl]-4-yl)amino)methyl)phenyl)picolinamido)propanoic acid], for which the pKi is 6.73 in experiment [1] (setting [3]) and 6.29 at human GCGR (setting [4]).
Take `O=C(O)CCNC(=O)c1ccc(-c2cc(C3CCCCC3)ccc2CNc2ccc(-c3ccc(F)cc3)cc2)cn1` [Compound 175, 3-(5-(5-cyclohexyl-2-(((4′-fluoro-[1,1′-biphenyl]-4-yl)amino)methyl)phenyl)picolinamido)propanoic acid]: the pKi in experiment [1] (setting [3]) is 7.62; on human GCGR (setting [4]), 7.34.
On to `O=C(O)CCNC(=O)c1ccc(-c2cc(Cl)ccc2CNc2ccc(-c3ccc(C(F)(F)F)cc3)c(F)c2)cn1` [Compound 90, 3-(5-(5-chloro-2-(((2-fluoro-4′-(trifluoromethyl)-[1,1′-biphenyl]-4-yl)amino)methyl)phenyl)picolinamido)propanoic acid], for which the negative-log Ki (pKi) is 7.47 in experiment [1] (setting [3]) and 6.55 on human GCGR (setting [4]).
Take `COc1ccc(-c2ccc(NCc3ccc(Cl)cc3-c3ccc(C(=O)NCCC(=O)O)nc3)cc2)c(Cl)c1` [Compound 143, 3-(5-(5-chloro-2-(((2′-chloro-4′-methoxy-[1,1′-biphenyl]-4-yl)amino)methyl)phenyl)picolinamido)propanoic acid]: the values for the negative-log Ki (pKi) (in experiment [1] (setting [3]); on human GCGR (setting [4])) were 7.55 and 6.97, respectively.
Consider `O=C(O)CCNC(=O)c1ccc(-c2cc(Cl)ccc2CNc2ccc(-c3ccc(F)cc3Cl)cc2)cn1` [Compound 152, 3-(5-(5-chloro-2-(((2′-chloro-4′-fluoro-[1,1′-biphenyl]-4-yl)amino)methyl)phenyl)picolinamido)propanoic acid], for which the pKi in experiment [1] (setting [3]) was 7.50; on human GCGR (setting [4]), 6.85.
For `O=C(O)CCNC(=O)c1ccc(-c2cc(Cl)ccc2CNc2ccc(-c3cccc(OC(F)(F)F)c3)cc2)cn1` [Compound 129, 3-(5-(5-chloro-2-(((3′-(trifluoromethoxy)-[1,1′-biphenyl]-4-yl)amino)methyl)phenyl)picolinamido)propanoic acid], in that order: 7.07 and 6.15.
For `O=C(O)CCNC(=O)c1ccc(-c2cc(Cl)ccc2CNc2ccc(-c3ccc(Cl)cc3)c(Cl)c2)cn1` [Compound 10, 3-(5-(5-chloro-2-(((2,4′-dichloro-[1,1′-biphenyl]-4-yl)amino)methyl)phenyl)picolinamido)propanoic acid], in that order: 7.51 and 6.96.
For `N#Cc1cc(NCc2cc(F)c(F)cc2-c2ccc(C(=O)NCCC(=O)O)nc2)ccc1-c1ccc(Cl)cc1` [Compound 110, 3-(5-(2-(((4′-chloro-2-cyano-[1,1′-biphenyl]-4-yl)amino)methyl)-4,5-difluorophenyl)picolinamido)propanoic acid], in that order: 7.36 and 6.77.
For `O=C(O)CCNC(=O)c1ccc(-c2cc(Cl)ccc2CNc2ccc(-c3cccc(C(F)(F)F)c3)c(Cl)c2)cn1` [Compound 170, 3-(5-(5-chloro-2-(((2-chloro-3′-(trifluoromethyl)-[1,1′-biphenyl]-4-yl)amino)methyl)phenyl)picolinamido)propanoic acid], the pKi in experiment [1] (setting [3]) was 7.68; at human GCGR (setting [4]), 7.18.
For `N#Cc1cc(NCc2cc(F)c(F)cc2-c2ccc(C(=O)NCCC(=O)O)nc2)ccc1-c1ccc(Cl)c(C(F)(F)F)c1` [Compound 113, 3-(5-(2-(((4′-chloro-2-cyano-3′-(trifluoromethyl)-[1,1′-biphenyl]-4-yl)amino)methyl)-4,5-difluorophenyl)picolinamido)propanoic acid], the negative-log Ki (pKi) in experiment [1] (setting [3]) was 7.23; at human GCGR (setting [4]), 6.19.
In the same order, the values of `O=C(O)CCNC(=O)c1ccc(-c2cc(Cl)ccc2CNc2ccc(-c3ccc(Cl)c(F)c3)c(F)c2)cn1` [Compound 93, 3-(5-(5-chloro-2-(((4′-chloro-2,3′-difluoro-[1,1′-biphenyl]-4-yl)amino)methyl)phenyl)picolinamido)propanoic acid] are 7.27 and 6.53.
